Literature values in patent US20100041745A1, “Aigialomycin D and Derivatives Thereof and Their Use in Treating Cancer or Malaria or a Microbial Infection” (priority 2006, published 2010).
≈ marks a conversion by molar mass, not a printed value.

SMILES: C[C@H]1C/C=C/[C@@H](O)[C@@H](O)CC/C=C/c2cc(O)cc(O)c2C(=O)O1 [aigialomycin D, Aigialomycin D]
- IC50 against KB cells (antitumour activity) (KB cells): 3.0 µg/mL (≈ 8.97 µM)
- IC50 against Vero cells (antitumour activity) (Vero cells): 1.8 µg/mL (≈ 5.38 µM)
- IC50 against P. falciparum (anti-malarial activity) (P. falciparum): 6.6 µg/mL (≈ 19.7 µM)
